According to patent US20090117654A1, “MEDIUM FOR CULTURING HEM[…] AND A METHOD OF CULTURING HEM[…]” (SAMSUNG ELECTRONICS CO., LTD., priority 2006, published 2009):

What was measured:
[1] = test system: bone marrow cells; assay: Proliferation of bone marrow cells in serum-free basal medium; assay type: cell-based, human; conditions: for proliferation of bone marrow cells, times more than the control medium: 100 μg/ml BAPN, two week culture
From the text: Effects of β-aminopropionitrile (hereinafter referred to as BAPN) on proliferation of bone marrow cells in serum-free medium were inspected. The bone marrow cells used in Example 1 mostly consists of hematopoietic cells and is a population of cells including hematopoietic cells.
First, proliferations of bone marrow cells were inspected in a serum-free medium in the presence and absence of fibronectin and collagen IV which are extracellular matrix that is known to influence proliferation of bone marrow cells.
(§1) A bone marrow monocyte (Catalog number ARM07F) was purchased from Stem Cell Technology Co., Ltd. The bone marrow mononuclear cells was obtained from a normal person, and CD34+ cells accounted for 1.6% of the cells. The bone marrow cells were maintained in a maintenance medium. The maintenance medium was a IMDM including 50 ng/ml of SCF, 50 ng/ml of IL-6, 50 ng/ml of TPO, 50 ng/ml of FL, 10 μg/ml of recombinant human insulin, 100 μg/ml of bovine serum albumin (BSA), 200 μg/ml of human transferrin, 0.1 mM of 2-mercaptoethanol, and 2 mM of L-glutamine.
(§2) 100 μl of the basal medium, and 100 μl of the basal medium with 100 μg/ml of BAPN were placed in each well of a 24 well plate, bone marrow cells were inoculated onto the media in the concentration of 1×10^5 cell/ml, and cultured for two weeks. The medium was exchanged every week. After the two week culture, adhesive cells were detached from the surface through trypsin treatment and the final cell concentration including floating cells was measured using a hemacytometer. In addition, the bottom of the 24 well plate was coated with collagen IV or fibronectin, and the effects of collagen IV or fibronectin were measured at the same time. The coating materials were dissolved to the concentration of from 5 to 50 μg/ml, the mixture was poured into the 24 wells to the amount of from 1 to 10 μg/cm^2 and reacted for one hour at room temperature.

[2] = test system: bone marrow cells; assay: Proliferation of bone marrow cells in serum-free basal medium including IL-3; assay type: cell-based, human; conditions: for proliferation of bone marrow cells, times more than the control medium including IL-3: 2 week culture
Procedure: Effects of BAPN on proliferation of bone marrow cells in serum-free basal medium including IL-3 which induces divisions of hematopoietic stem cells were inspected.
as §1, with “monocyte” for “mononuclear cells”, “total monocytes.” for “cells.”, “maintaining” for “maintenance”
as §2, with “the basal medium with 20 μg/ml of IL-3, and 100” for “the basal medium, and 100”, “medium with 20 μg/ml of IL-3 and 100 μg/ml” for “medium with 100 μg/ml”, “After the 2 week culture,” for “After the two week culture,”, “same time. In the coating, coating materials” for “same time. The coating materials”

Question: With `N#CCCN` [BAPN, β-aminopropionitrile] as the compound, how does the “proliferation of bone marrow cells, times more than the control medium” value ([1]; collagen-coated 24 well plate) read?
Answer: 5.1 times

Question: And the “proliferation of bone marrow cells, times more than the control medium” value ([1]; fibronectin-coated 24 well plate)?
Answer: 12.1 times

Question: What about the “proliferation of bone marrow cells, times more than the control medium” value ([1]; uncoated 24 well plate) of the same compound?
Answer: 5.4 times

Question: And the “effect on proliferation of bone marrow cells” value ([1]; whether or not the culture vessel was coated with extracellular matrix)?
Answer: promoted the proliferation of bone marrow cells

Question: What about the “proliferation of bone marrow cells, times more than the control medium including IL-3” value ([2]; 100 μg/ml BAPN with IL-3, collagen-coated 24 well plate) of the same compound?
Answer: 2.6 times

Question: And the “proliferation of bone marrow cells, times more than the control medium including IL-3” value ([2]; 100 μg/ml BAPN with IL-3, fibronectin-coated 24 well plate)?
Answer: 2.0 times

Question: What about the “proliferation of bone marrow cells, times more than the control medium including IL-3” value ([2]; 100 μg/ml BAPN with IL-3, uncoated 24 well plate) of the same compound?
Answer: 3.1 times

Question: What about the “effect on proliferation of bone marrow cells” value ([2]; with or without extracellular matrix coating, with or without cytokine (IL-3)) of the same compound?
Answer: promoted the proliferation of bone marrow cells
